Measured values reported in patent US20200299783A1 (Board of Regents, The University of Texas System, priority 2019, published 2020).
Entries after “also recorded” stand apart in the source; their conditions may differ.

Columns and labels:
[1] = tested on: ibrutinib-resistant MCL cell lines, Z-138 and Maver-1; experiment: Mitochondria respiration (OCR, Seahorse), ibrutinib-resistant MCL cell lines; type: cell-based, human; conditions: 20 nM for 1 h, FIG. 5B
Protocol: (§1) The oxygen consumption rate (OCR) was measured using a Seahorse XF-96 Metabolic Flux Analyzer (Seahorse Bioscience, North Billerica, Mass., USA). Briefly, MCL cells were treated with/without IACS-010759 (20 nM) for 1 h. On the day of analysis, 2-4×10^5 MCL cells/well were adhered to XF 96-well cell culture microplates (Seahorse Biosciences) pre-coated with Cell-Talc (BD Biosciences), by centrifugation at 1,000×g, without brakes for 5 min, then changed to mitochondria stress medium supplemented with 25 mM glucose, 2 mM sodium pyruvate, and 2 mM glutamine (pH 7.4), followed by incubation at 37° C. in a non-CO2 incubator for 1 h. […], FCCP (2 μM), and Rotenone/Antimycin A (0.5 μM), were loaded into drug delivery ports and injected sequentially at the indicated time points. After each injection, 4 time points were recorded with approximately 35 min between each injection. […] over time was normalized to protein content measured by sulforhodamine B (SRB) staining and plotted using Graph-Pad Prism.

[2] = tested on: Z-138 and Maver-1 MCL cell lines; experiment: Immunoblotting of cleaved Caspase-7 and PARP; type: cell-based, human; conditions: 20 nM IACS-010759 and/or 5 μM BPTES for 72 hours; FIG. 5G
Protocol: Cells were cultured with single agent or combination therapy in the presence or absence of caspase inhibitors. Cells were harvested, washed twice with cold PBS, and lysed with lysis buffer (Cell Signaling, Danvers, Mass., USA). Cell lysates were kept on ice for 30 min and centrifuged at 13,000 g for 10 min at 4° C. For the detection of cytosolic cytochrome c, the Cytosol Fractionation Kit (BioVision, Milpitas, Calif., USA) was utilized to acquire cytosolic fractions according to the manufacturer's instructions. Supernatants were collected, and the protein content of each fraction was determined using a Bio-Rad Bradford assay (Bio-Rad, Hercules, Calif., USA). Samples were boiled in loading buffer and separated by 10% SDS-PAGE. After electrophoresis, the proteins were transferred onto a nitrocellulose membrane (Bio-Rad), which was incubated with blocking solution (5% nonfat dry milk in PBS containing 0.05% Tween-20) for 2 h and immunoblotted with SLC16A1 (Novus, St. Louis, Mo., USA), SLC1A5, BTK, and p16INK4a, and GAPDH (Cell Signaling, Danvers, Mass., USA) antibodies. The membrane was finally visualized by incubating the membrane with a chemiluminescence Western blot kit (Pierce Biotechnology, Rockford, Ill., USA).

[3] = tested on: ibrutinib-sensitive MCL cell lines (Mino and JeKo-1); experiment: Cell growth assay, ibrutinib-sensitive MCL cell lines; type: cell-based, human; conditions: 72-hour incubation, FIG. 5A
Protocol: (§2) Cells were seeded in triplicate in a 96-well plate with 2×10^5 cells per well and treated with indicated dose of single agent or two compound combination for 24-72 hours. In the last 30 min, 50 μL of CellTiter 96 Aqueous One Solution Reagent were added to the culture wells and incubated at 37° C. in 5% CO2. Light absorbance of formazan was measured at 495 nm on a universal microplate reader equipped with KC4 software (Biotek Instruments, Winooski, Vt., USA).

[4] = tested on: ibrutinib-sensitive MCL cell lines; experiment: ROS levels by flow cytometry, ibrutinib-sensitive MCL cell lines; type: cell-based, human; conditions: FIG. 5E
Protocol: (§3) Mitochondria membrane potential, mitochondria mass, ROS, and apoptosis analysis. MCL cells were seeded and cultured overnight before treatment to reach log phase. Respective cell lines were plated at 2×10^6 cells/well in 6-well plates in phenol-red and pyruvate-free DMEM assay medium containing 5 mM glucose (Sigma), 2 mM GlutaMAX (Gibco, ThermoFisher Scientific), and 5% dialyzed FCS (Gibco). Vehicle, IACS-0107059 (20 nM), or (1-5 μM) BPTES was added and replenished every day until the indicated time points. ROS and mitochondria membrane potential were evaluated 24 hours after treatment. […] TMRE dye fluorescence retained in the cells was detected by flow cytometry with excitation and emission of 548/574 nm. Data were analyzed with NovoExpress (ACEA Biosciences, San Diego, Calif., USA) or FlowJo10 (Tree Star, Ashland, Oreg., USA).
To measure ROS levels, treated cells were harvested, stained with […] CM-H2DCF-DA (C6827, Molecular Probes, Invitrogen) in PBS for 30 min at 37° C., washed twice with PBS, and analyzed in a flow cytometer (FACS Caliber, BD Biosciences) by recording the green fluorescence of oxidized DCF. The mean fluorescence of 10,000 analyzed cells (corrected for auto fluorescence) was taken as a readout for the intracellular ROS load.

[5] = tested on: ibrutinib-resistant Z-138 and Maver-1 cell lines; experiment: Mitochondria membrane potential (TMRE), ibrutinib-resistant MCL cell lines; type: cell-based, human; conditions: 20 nM IACS-010759 and/or 5 μM BPTES for 24 hours; FIGS. 5C & 5D
Protocol: Mitochondria membrane potential, mitochondria mass, ROS, and apoptosis analysis. MCL cells were seeded and cultured overnight before treatment to reach log phase. Respective cell lines were plated at 2×10^6 cells/well in 6-well plates in phenol-red and pyruvate-free DMEM assay medium containing 5 mM glucose (Sigma), 2 mM GlutaMAX (Gibco, ThermoFisher Scientific), and 5% dialyzed FCS (Gibco). Vehicle, IACS-0107059 (20 nM), or (1-5 μM) BPTES was added and replenished every day until the indicated time points. ROS and mitochondria membrane potential were evaluated 24 hours after treatment. To determine mitochondria membrane potential (Δψm), treated cells were loaded with MitoStatus tetramethylrhodamine, ethyl ester (TMRE) (BD Biosciences) at 37° C. for 15 min and washed with PBS twice to remove residual TMRE. TMRE dye fluorescence retained in the cells was detected by flow cytometry with excitation and emission of 548/574 nm. Data were analyzed with NovoExpress (ACEA Biosciences, San Diego, Calif., USA) or FlowJo10 (Tree Star, Ashland, Oreg., USA).

[6] = tested on: ibrutinib-sensitive MCL cell line, Mino; experiment: Mitochondria respiration (OCR, Seahorse), ibrutinib-sensitive Mino; type: cell-based, human; conditions: 20 nM for 1 h, vs control, p=0.0832, FIG. 5B
Protocol: as §1

[7] = tested on: ibrutinib-resistant high-grade B-cell lymphoma PDX
[8] = tested on: ibrutinib-resistant MCL cell lines Maver-1 and Z-138; experiment: ROS levels by flow cytometry, ibrutinib-resistant MCL cell lines; type: cell-based, human
Protocol: as §3, with “USA). To measure ROS levels, treated cells were harvested, stained with […] CM-H2DCF-DA (C6827, Molecular Probes, Invitrogen) in PBS for 30 min at 37° C., washed twice with PBS, and analyzed in a flow cytometer (FACS Caliber, BD Biosciences) by recording the green fluorescence of oxidized DCF. The mean fluorescence of 10,000 analyzed cells (corrected for auto fluorescence) was taken as a readout for the intracellular ROS load.” for “USA).”

[9] = tested on: ibrutinib-resistant MCL cell lines (Maver-1 and Z-138) versus ibrutinib-sensitive (JeKo-1 and Mino); experiment: Glutamine uptake in MCL cell lines; type: cell-based, human; conditions: 20 nM for 24 hours; resistant compared with sensitive cells; FIG. 11D
Protocol: (§4) MCL cell lines were seeded at 1-2×10^6 cells/well in triplicate in six-well plates and incubated overnight. Next, the media were replaced with 3 mL complete RPMI-1640 medium with or without inhibitors. […] and analyzed for their glucose, glutamine and lactate content using the Glucose, Glutamine and Lactate Colorimetric Assay Kits (BioVision), respectively, according to the manufacturer's instructions. Glucose or glutamine consumption was extrapolated by subtracting the measured glucose concentrations in the media from the initial concentrations (11.1 mM glucose; 2 mM glutamine). Intracellular ATP contents from above treated cells was determined using ATP Colorimetric Assay Kit (Biovision) as outlined in the manufacturer's protocol. […]

ETC complex I = ETC complex I activity in ibrutinib-resistant MCL cell lines; type: cell-based, human; conditions: Z-138 and Maver-1; 20 nM, 24 hours; FIGS. 11A & 11B
[10] = tested on: ibrutinib-resistant MCL cell lines (Z-138 and Maver-1); experiment: Cell growth assay, ibrutinib-resistant MCL cell lines; type: cell-based, human
Protocol: as §2

[11] = tested on: ibrutinib-resistant Maver-1 MCL cells; experiment: Apoptosis assay (Annexin-V/PI), Maver-1; type: cell-based, human; conditions: 72 hours, 20 nM IACS-010759 and/or 5 μM BPTES, FIGS. 5F & 11E
Protocol: (§5) Apoptosis assays. Annexin V-binding assay was used to detect the induction of apoptosis. Cells were seeded in 48-well plates with single agent or combination therapy for various times, or with different concentrations for 48 hours. To quantify the percentages of cells undergoing apoptosis, Annexin V-FITC was used. Briefly, cells were washed twice with cold PBS and then suspended in binding buffer at a concentration of 1×10^6 cells/mL. After incubation, 100 μL of the solution was transferred to a 5-mL tube, to which 5 μL of Annexin V-FITC and 5 μL of PI are added. The tube was gently vortexed and incubated for 15 min at room temperature in dark. At the end of the incubation, 300 μL of binding buffer was added. Flow cytometric analysis was performed immediately with a Novocyte Flow Cytometer (ACEA Biosciences, San Diego, Calif., USA). Data were analyzed with NovoExpress (ACEA Biosciences, San Diego, Calif., USA) or FlowJo10 (Tree Star, Ashland, Oreg., USA).

[12] = tested on: ibrutinib-resistant MCL PDX
Protocol: Histopathological analysis. Excised tissues from patients and PDX mice were fixed in 10% formalin solution, processed by standard methods, embedded in paraffin, sectioned at 5 μm, and stained with H&E. For immunohistochemical (IHC) evaluation, the tissues are stained with an antibody against human anti-CD20 (Dako, Glostrup, Denmark), counterstained with Harris hematoxylin and examined by standard light microscopy. Samples were analyzed using an Olympus BX51TF microscope equipped with UPlan FL 40×/0.75 and 20×/0.50 objective lenses (Olympus, Melville, N.Y., USA).

[13] = tested on: ibrutinib-resistant Z-138 MCL cells; experiment: Apoptosis assay (Annexin-V/PI), Z-138; type: cell-based, human; conditions: 72 hours, 20 nM IACS-010759 and/or 5 μM BPTES, FIGS. 5F & 11E
Protocol: as §5

[14] = tested on: ibrutinib-resistant (Maver-1 and Z-138) MCL cell lines; experiment: Intracellular ATP, ibrutinib-resistant MCL cell lines; type: cell-based, human; conditions: 20 nM for 24 hours; 0 nM vs 20 nM p<0.0001; FIG. 11C
Protocol: as §4

Cc1nc(-c2nc(-c3ccc(OC(F)(F)F)cc3)no2)nn1Cc1cccc(N2CCC(S(C)(=O)=O)CC2)c1 [IACS-010759]
OCR (oxygen consumption rate) ([1]; vs DMSO-treated control): reduced the OCR | average reduction of OCR compared with the control ([1]; mixed effects regression model, p<0.0001): 358.9406 (95% CI: 321.1402-396.741) | caspase 7 activation and PARP cleavage [2]: induced caspase 7 activation and PARP cleavage | inhibition of proliferation (cell growth inhibition) [3]: very little effect | ROS production [4]: not in the -sensitive cell lines | mitochondrial potential (Δψm, TMRE) [5]: decreased | OCR (oxygen consumption rate) [6]: little effect; also recorded: No significant difference | body weight vs vehicle ([7]; 10 mg/kg oral gavage 5 consecutive days/week, p=0.1964, FIG. 12C): not significantly different | tumor growth by tumor volume ([7]; IACS-010759 10 mg/kg 5 days/week (p<0.0001 vs vehicle), ibrutinib 50 mg/kg daily (p=0.7227), oral gavage, FIG. 12A): significantly inhibited tumor growth | tumor growth by human (32M levels) ([7]; IACS-010759 10 mg/kg 5 days/week (p=0.0003 vs vehicle), ibrutinib 50 mg/kg daily (p=0.6911), FIG. 12B): significantly inhibited tumor growth | survival benefit ([7]; compared with vehicle- and ibrutinib-treated mice, FIG. 12D): greater than 20 days | survival of the ibrutinib-resistant PDX mice ([7]; n=5, vs vehicle p=0.0035, vs ibrutinib p=0.0035, FIG. 12D): significantly prolonged the survival | ROS production ([8]; Maver-1 and Z-138, IACS-010759 25 nM (text; FIG. 5E legend 20 nM) and/or 5 μM BPTES, 24 hours): induced ROS production | glutamine uptake inhibition [9]: greater glutamine uptake inhibition | ETC complex I activity (ETC complex I): reduced | inhibition of proliferation (cell growth inhibition) ([10]; Z-138 and Maver-1, 72-hour incubation, FIG. 5A): dose-dependent manner at nanomolar concentrations | difference in IC50 values between the resistant and sensitive cell lines ([10]; cell growth, 72 h, resistant (Z-138, Maver-1) vs sensitive (Mino, JeKo-1)): approximately 10 fold | apoptosis [11]: 23% | toxicities ([12]; 10 mg/kg oral gavage 5 consecutive days/week): No apparent toxicities | body weight vs vehicle control ([12]; 10 mg/kg oral gavage 5 consecutive days/week, p=0.3304, FIG. 6C): not significantly different | tumor growth by tumor volume ([12]; 10 mg/kg oral gavage 5 consecutive days/week, vs vehicle, n=5, p<0.0001, FIG. 6A): completely prevented tumor growth | tumor growth by human β2M levels ([12]; 10 mg/kg oral gavage 5 consecutive days/week, vs vehicle, n=5, p<0.0001, FIG. 6B): completely prevented tumor growth | H&E and anti-CD20 staining of dissected tissue post-treatment ([12]; end of treatment, a small number of CD20+ cells remained, FIG. 6D): repopulation of the tumor area with fatty deposits | apoptosis [13]: 42% | ATP production (intracellular ATP levels) [14]: decreased

O=C(Cc1ccccc1)Nc1nnc(CCSCCc2nnc(NC(=O)Cc3ccccc3)s2)s1 [BPTES, bis-2-(5-phenylacetamido-1,3,4-thiadiazol-2-yl)ethyl sulfide]
caspase 7 activation and PARP cleavage [2]: induced caspase 7 activation and PARP cleavage | apoptosis [11]: 25% | apoptosis [13]: 44%

NOCC(=O)O [AOA, aminooxyacetate]
ROS and energy stress ([8]; 0.5 mM AOA for 24 hours, compared with the sensitive cell lines, FIG. 10B): marked induction of reactive oxygen species (ROS) and energy stress
